Legend:
[1] = biological target: Lysine-specific demethylase 5A (Homo sapiens, UniProt P29375); assay: Enzymatic Assay: The enzymatic assay of Jarid1A activity is based upon Time Resolved-Fluorescence Resonance Energy Transfer (TR-FRET) detection. The ability of test compounds to inhibit the activity of Jarid1A was determined in 384-well plate format under the following reaction conditions: 1 nM Jarid1A, 300 nM H3K4me3-biotin labeled peptide (Anaspec cat #64357), 2 μM alpha-ketoglutaric acid in assay buffer of 50 mM HEPES, pH7.3, 0.005% Brij35, 0.5 mM TCEP, 0.2 mg/ml BSA, 50 μM sodium L-ascorbate, and 2 μM ammonium iron(II) sulfate. Reaction product was determined quantitatively by TR-FRET after the addition of detection reagent Phycolink Streptavidin-allophycocyanin (Prozyme) and Europium-anti-mono- or di-methylated histone H3 lysine 4 (H3K4me1-2) antibody (PerkinElmer) in the presence of 5 mM EDTA in LANCE detection buffer (PerkinElmer) at a final concentration of 25 nM and 1 nM, respectively.The assay reaction was initiated by the following: 2 μl of the mixture of 900 nM H3K4me3-biotin labeled peptide and 6 μM alpha-ketoglutaric acid with 2 μl of 11-point serial diluted inhibitor in 3% DMSO was added to each well of plate, followed by the addition of 2 μl of 3 nM Jarid1A to initiate the reaction.
[2] = biological target: Lysine-specific demethylase 5B (Homo sapiens, UniProt Q9UGL1); assay: Enzymatic Assay: The ability of test compounds to inhibit the activity of Jarid1B was determined in 384-well plate format under the following reaction conditions: 0.8 nM Jarid1B, 300 nM H3K4me3-biotin labeled peptide (Anaspec cat #64357), 2 μM alpha-ketoglutaric acid in assay buffer of 50 mM HEPES, pH7.3, 0.005% Brij35, 0.5 mM TCEP, 0.2 mg/ml BSA, 50 μM sodium L-ascorbate, and 2 μM ammonium iron(II) sulfate. Reaction product was determined quantitatively by TR-FRET after the addition of detection reagent Phycolink Streptavidin-allophycocyanin (Prozyme) and Europium-anti-mono- or di-methylated histone H3 lysine 4 (H3K4me1-2) antibody (PerkinElmer) in the presence of 5 mM EDTA in LANCE detection buffer (PerkinElmer) at a final concentration of 25 nM and 1 nM, respectively.The assay reaction was initiated by the following: 2 μl of the mixture of 900 nM H3K4me3-biotin labeled peptide and 6 μM alpha-ketoglutaric acid with 2 μl of 11-point serial diluted inhibitor in 3% DMSO was added to each well of the plate, followed by the addition of 2 μl of 2.4 nM Jarid1B to initiate the reaction. The reaction mixture was incubated at room temperature for 30 minutes, and terminated by the addition of 6 μl of 5 mM EDTA in LANCE detection buffer containing 50 nM Phycolink Streptavidin-allophycocyanin and 2 nM Europium-anti-H3K4me1-2 antibody.
[3] = biological target: T1, Lysine-specific demethylase 4C (Homo sapiens, UniProt Q9H3R0); assay: Enzymatic Assay: The ability of test compounds to inhibit the activity of JMJD2C was determined in 384-well plate format under the following reaction conditions: 0.3 nM JMJD2C, 300 nM H3K9me3-biotin labeled peptide (Anaspec cat #64360), 2 μM alpha-ketoglutaric acid in assay buffer of 50 mM HEPES, pH7.3, 0.005% Brij35, 0.5 mM TCEP, 0.2 mg/ml BSA, 50 μM sodium L-ascorbate, and 2 μM ammonium iron(II) sulfate. Reaction product was determined quantitatively by TR-FRET after the addition of detection reagent Phycolink Streptavidin-allophycocyanin (Prozyme) and Europium-anti-di-methylated histone H3 lysine 9 (H3K9me2) antibody (PerkinElmer) in the presence of 5 mM EDTA in LANCE detection buffer (PerkinElmer) at a final concentration of 50 nM and 1 nM, respectively.The assay reaction was initiated by the following: 2 μl of the mixture of 900 nM H3K9me3-biotin labeled peptide and 6 μM alpha-ketoglutaric acid with 2 μl of 11-point serial diluted inhibitor in 3% DMSO were added to each well of the plate, followed by the addition of 2 μl of 0.9 nM JMJD2C to initiate the reaction. The reaction mixture was incubated at room temperature for 30 minutes, and terminated by the addition of 6 μl of 5 mM EDTA in LANCE detection buffer containing 100 nM Phycolink Streptavidin-allophycocyanin and 2 nM Europium-anti-H3K9me2 antibody. […]
T1 sequence (Q9H3R0 whole entry): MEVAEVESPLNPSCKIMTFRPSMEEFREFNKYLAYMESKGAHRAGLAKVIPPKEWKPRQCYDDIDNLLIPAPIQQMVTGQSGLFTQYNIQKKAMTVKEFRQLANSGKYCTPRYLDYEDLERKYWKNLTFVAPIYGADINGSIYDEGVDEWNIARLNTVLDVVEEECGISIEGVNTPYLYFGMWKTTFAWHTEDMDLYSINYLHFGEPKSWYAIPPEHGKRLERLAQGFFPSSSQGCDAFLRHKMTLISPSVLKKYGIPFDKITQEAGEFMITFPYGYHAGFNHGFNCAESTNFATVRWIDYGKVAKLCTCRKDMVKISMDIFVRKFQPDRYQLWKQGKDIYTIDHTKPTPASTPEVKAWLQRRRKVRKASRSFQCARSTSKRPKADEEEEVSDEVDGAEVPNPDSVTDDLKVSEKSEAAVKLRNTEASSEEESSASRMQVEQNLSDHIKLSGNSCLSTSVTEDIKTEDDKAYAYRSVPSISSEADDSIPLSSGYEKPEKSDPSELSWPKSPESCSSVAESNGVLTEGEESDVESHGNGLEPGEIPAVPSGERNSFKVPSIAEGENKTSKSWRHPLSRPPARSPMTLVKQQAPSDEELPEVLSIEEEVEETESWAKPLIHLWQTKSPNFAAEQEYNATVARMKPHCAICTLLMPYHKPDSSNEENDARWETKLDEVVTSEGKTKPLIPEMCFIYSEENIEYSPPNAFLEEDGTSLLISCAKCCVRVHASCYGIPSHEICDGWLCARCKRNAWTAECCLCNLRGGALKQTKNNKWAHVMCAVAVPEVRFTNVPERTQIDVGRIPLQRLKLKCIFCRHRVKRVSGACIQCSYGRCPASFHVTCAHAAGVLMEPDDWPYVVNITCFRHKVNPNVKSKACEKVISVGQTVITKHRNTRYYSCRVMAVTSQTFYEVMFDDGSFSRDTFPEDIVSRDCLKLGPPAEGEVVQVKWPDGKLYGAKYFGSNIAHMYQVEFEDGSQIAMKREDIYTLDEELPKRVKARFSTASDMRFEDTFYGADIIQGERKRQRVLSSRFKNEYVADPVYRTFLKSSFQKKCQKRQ

Chain of Lysine-specific demethylase 5B (Q9UGL1 whole entry): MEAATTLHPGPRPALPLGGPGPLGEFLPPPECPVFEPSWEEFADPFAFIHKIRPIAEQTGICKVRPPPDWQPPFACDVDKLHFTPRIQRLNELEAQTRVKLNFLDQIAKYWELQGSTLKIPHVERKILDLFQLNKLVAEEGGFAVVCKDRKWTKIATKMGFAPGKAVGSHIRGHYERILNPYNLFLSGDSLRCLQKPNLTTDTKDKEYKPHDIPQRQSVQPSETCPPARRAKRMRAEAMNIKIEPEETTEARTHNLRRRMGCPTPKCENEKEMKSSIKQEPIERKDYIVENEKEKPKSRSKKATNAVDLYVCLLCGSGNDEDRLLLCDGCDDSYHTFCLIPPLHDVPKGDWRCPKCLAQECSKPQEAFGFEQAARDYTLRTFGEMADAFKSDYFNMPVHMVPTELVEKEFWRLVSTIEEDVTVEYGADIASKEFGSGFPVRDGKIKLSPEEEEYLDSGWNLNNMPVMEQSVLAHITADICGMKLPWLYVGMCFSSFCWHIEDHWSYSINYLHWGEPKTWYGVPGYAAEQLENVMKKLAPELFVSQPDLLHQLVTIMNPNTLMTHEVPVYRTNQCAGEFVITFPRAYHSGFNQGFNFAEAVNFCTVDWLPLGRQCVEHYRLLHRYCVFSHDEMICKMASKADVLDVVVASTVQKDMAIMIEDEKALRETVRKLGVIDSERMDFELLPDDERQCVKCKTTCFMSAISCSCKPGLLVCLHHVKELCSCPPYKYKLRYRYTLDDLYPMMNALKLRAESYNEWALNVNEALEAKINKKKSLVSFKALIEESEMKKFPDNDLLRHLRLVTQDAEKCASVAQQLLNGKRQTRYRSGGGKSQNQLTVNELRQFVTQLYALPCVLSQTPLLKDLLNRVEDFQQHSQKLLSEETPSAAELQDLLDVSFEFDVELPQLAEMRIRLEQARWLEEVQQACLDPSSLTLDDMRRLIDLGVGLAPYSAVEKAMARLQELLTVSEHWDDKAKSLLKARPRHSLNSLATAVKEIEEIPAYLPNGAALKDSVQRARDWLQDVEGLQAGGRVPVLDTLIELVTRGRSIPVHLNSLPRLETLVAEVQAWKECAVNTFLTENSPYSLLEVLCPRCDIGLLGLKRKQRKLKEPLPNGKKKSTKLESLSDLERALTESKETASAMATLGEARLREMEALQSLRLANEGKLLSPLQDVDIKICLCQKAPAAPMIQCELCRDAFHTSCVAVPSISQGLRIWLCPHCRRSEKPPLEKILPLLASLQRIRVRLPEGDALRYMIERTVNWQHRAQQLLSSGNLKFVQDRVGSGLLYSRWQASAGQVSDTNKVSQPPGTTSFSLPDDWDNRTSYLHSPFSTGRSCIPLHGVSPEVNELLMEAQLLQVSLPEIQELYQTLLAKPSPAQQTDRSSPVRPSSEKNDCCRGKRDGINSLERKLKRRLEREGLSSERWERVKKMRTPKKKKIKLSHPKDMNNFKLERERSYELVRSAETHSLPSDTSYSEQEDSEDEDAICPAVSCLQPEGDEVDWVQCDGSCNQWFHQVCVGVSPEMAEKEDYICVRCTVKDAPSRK
Chain of Lysine-specific demethylase 5A (P29375 whole entry): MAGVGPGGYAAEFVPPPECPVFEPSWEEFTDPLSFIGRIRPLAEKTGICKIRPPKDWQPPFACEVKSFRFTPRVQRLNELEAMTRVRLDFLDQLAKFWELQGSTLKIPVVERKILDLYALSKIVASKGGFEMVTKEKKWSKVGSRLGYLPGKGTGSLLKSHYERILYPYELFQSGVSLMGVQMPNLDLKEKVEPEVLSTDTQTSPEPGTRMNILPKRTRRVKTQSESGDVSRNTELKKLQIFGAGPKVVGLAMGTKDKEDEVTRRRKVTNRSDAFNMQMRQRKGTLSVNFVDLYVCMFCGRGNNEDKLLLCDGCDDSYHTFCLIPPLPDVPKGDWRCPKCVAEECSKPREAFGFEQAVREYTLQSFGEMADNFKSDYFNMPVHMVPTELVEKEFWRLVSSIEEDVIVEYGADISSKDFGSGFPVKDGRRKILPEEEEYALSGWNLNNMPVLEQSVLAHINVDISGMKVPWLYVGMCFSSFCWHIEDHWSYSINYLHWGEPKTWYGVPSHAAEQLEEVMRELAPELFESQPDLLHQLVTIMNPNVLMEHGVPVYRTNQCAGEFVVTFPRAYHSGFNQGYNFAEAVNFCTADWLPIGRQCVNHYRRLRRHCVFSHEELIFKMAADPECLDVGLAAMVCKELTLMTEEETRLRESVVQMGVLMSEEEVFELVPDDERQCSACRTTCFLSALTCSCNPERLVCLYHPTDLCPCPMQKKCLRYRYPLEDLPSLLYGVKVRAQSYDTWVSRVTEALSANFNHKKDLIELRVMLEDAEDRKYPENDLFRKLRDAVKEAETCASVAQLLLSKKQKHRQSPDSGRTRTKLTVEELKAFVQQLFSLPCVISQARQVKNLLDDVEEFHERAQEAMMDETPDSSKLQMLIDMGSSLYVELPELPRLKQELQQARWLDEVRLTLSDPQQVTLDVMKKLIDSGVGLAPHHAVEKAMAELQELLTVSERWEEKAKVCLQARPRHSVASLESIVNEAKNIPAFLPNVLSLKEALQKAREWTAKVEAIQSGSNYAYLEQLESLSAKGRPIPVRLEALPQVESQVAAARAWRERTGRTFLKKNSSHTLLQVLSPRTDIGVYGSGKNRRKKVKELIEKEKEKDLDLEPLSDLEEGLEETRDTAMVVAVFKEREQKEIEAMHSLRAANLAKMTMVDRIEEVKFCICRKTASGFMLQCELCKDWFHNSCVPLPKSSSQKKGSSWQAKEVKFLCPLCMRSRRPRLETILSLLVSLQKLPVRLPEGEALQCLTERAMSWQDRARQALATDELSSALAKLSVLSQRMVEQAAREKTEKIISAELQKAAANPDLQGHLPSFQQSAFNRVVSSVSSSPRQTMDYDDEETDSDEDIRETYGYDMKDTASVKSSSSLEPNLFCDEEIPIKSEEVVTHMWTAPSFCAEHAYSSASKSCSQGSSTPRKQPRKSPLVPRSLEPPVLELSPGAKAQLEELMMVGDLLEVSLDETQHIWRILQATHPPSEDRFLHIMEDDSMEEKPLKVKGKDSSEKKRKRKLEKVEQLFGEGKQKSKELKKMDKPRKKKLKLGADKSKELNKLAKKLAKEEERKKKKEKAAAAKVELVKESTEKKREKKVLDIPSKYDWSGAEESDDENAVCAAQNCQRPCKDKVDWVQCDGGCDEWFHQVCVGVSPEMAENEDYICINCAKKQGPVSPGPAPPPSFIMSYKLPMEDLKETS

IC50 [1]: < 100 nM
IC50 [2]: < 100 nM
IC50 [3]: < 100 nM
SMILES: CC1(C)CCN(C(=O)c2cc3nccc(C(=O)O)c3[nH]2)CC1

Source: ChEMBL document CHEMBL5726350, “Histone demethylase inhibitors” (2017)
